Experimental data from ChEMBL document CHEMBL4261613, “Discovery of a potent orally bioavailable retinoic acid receptor-related orphan receptor-gamma-t (RORγt) inhibitor, S18-000003” (Bioorg Med Chem Lett, 2018).
Converted amounts (≈) assume the structure as drawn.

Experiments:
[1] = Stability in human liver microsomes assessed as parent compound remaining after 2 hrs by LC-MS/MS analysis; format: ADME, microsome; conditions: read-out: Stability
[2] = target: T1, Nuclear receptor ROR-gamma (Mus musculus, UniProt P51450); assay: (§1) Transrepression of recombinant mouse GAL4-DBD fused RORgammat LBD expressed in HEK293 cells after 20 hrs by luciferase reporter gene assay; format: cell-based
T1 sequence (P51450 whole entry): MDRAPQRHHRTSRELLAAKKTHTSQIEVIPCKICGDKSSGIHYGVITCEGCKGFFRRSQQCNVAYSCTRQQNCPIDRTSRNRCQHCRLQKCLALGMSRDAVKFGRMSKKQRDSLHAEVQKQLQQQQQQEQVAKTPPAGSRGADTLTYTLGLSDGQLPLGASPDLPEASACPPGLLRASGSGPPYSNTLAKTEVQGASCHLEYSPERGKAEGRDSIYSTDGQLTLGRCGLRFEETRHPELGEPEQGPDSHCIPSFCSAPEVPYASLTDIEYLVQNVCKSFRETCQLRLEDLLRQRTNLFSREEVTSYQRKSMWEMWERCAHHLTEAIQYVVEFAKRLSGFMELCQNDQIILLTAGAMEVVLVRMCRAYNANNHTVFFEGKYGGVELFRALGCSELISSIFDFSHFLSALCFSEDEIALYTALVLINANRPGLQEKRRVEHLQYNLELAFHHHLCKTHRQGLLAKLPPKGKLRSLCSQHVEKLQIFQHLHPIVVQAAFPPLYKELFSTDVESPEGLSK

[3] = target: T2, Nuclear receptor ROR-gamma (Mus musculus) (UniProt P51450); assay: as §1; format: cell-based
T2 sequence (whole entry): T1 sequence (P51450 whole entry)

[4] = target: T1, Nuclear receptor ROR-gamma; assay: Transrepression of RORgammat in anti-CD3/CD28 stimulated C57BL/6 mouse CD4-positive T cells assessed as suppression of T cell differentiation to Th17 cells by measuring reduction in IL-17A level after 4 days by ELISA
[5] = Stability in rat liver microsomes assessed as parent compound remaining after 2 hrs by LC-MS/MS analysis; format: ADME, microsome; conditions: read-out: Stability
[6] = target: T3, Nuclear receptor ROR-gamma (Homo sapiens) (UniProt P51449); assay: (§2) Transrepression of recombinant human GAL4-DBD fused RORgammat LBD expressed in HEK293 cells after 20 hrs by luciferase reporter gene assay; format: cell-based
T3 sequence (whole entry): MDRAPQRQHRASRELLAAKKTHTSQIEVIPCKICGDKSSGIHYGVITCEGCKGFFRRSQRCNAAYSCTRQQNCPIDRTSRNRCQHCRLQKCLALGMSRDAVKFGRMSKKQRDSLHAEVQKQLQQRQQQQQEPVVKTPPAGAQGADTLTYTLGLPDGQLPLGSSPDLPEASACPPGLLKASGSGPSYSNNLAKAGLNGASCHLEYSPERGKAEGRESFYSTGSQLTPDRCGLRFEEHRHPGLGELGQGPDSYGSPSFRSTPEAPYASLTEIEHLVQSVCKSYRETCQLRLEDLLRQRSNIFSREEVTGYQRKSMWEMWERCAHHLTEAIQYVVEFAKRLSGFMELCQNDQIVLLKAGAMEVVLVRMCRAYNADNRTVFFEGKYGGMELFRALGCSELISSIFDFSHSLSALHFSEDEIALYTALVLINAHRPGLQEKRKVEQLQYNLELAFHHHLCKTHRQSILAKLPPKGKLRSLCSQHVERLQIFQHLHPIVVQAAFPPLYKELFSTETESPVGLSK

[7] = target: T4, Nuclear receptor ROR-gamma (Homo sapiens, UniProt P51449); assay: as §2; format: cell-based
T4 sequence (P51449 whole entry): T3 sequence (whole entry)

[8] = target: T4, Nuclear receptor ROR-gamma; assay: Displacement of [3H]-Digoxin from recombinant human GST-fused RORgammat LBD after 1 to 4 hrs by scintillation counting method
[9] = Solubility of the compound in KH2PO4/Na2HPO4 buffer at pH 6.8 by shake-flask method; format: physicochemical
[10] = Solubility of the compound in NaCl/HCl buffer at pH 1.2 by shake-flask method; format: physicochemical

| Compound | remaining at 2 h [1] [%] | IC50 [2] [nM] | Efficacy [3] [%] | IC50 [4] [nM] | remaining at 2 h [5] [%] | Efficacy [6] [%] | IC50 [7] [nM] | IC50 [8] [nM] | solubility thermodynamic [9] [µM] | solubility thermodynamic [10] [µM] |
| --- | --- | --- | --- | --- | --- | --- | --- | --- | --- | --- |
| CCS(=O)(=O)c1ccc(CC(=O)Nc2ccc(C(C)(C)C(=O)Nc3ccccc3F)cc2)cc1 | 67 | 100 | 76 | 100 | 19 | 93 | 4.4 | – | – | – |
| CCS(=O)(=O)c1ccc(CC(=O)Nc2ccc(C(C)(C)C(=O)Nc3cccc(F)c3)cc2)cc1 | 2.7 | 260 | 84 | 290 | 24 | 94 | 9.8 | – | – | – |
| CCS(=O)(=O)c1ccc(CC(=O)Nc2ccc(C(C)(C)C(=O)Nc3ccc(F)cc3F)cc2)cc1 | 97 | 1800 | 73 | 1300 | 73 | 91 | 95 | – | – | – |
| CCOC(=O)C(C)(C)c1ccc(NC(=O)Cc2ccc(S(=O)(=O)CC)cc2)cc1 | – | 3100 | 77 | – | – | 93 | 400 | 64 | – | – |
| CCS(=O)(=O)c1ccc(CC(=O)Nc2ccc(C(C)(C)C(=O)Nc3cc(Cl)ccn3)cc2)cc1 | 40 | 100 | 86 | – | 8.1 | 95 | 8.2 | – | 4.7 (≈ 2.35 µg/mL) | > 50 |
| CCS(=O)(=O)c1ccc(CC(=O)Nc2ccc(C(C)(C)C(=O)Nc3cc(C#N)ccn3)cc2)cc1 | 92 | 290 | 91 | – | 72 | 97 | 40 | – | 25 (≈ 12.3 µg/mL) | 47 (≈ 23.1 µg/mL) |
| CCS(=O)(=O)c1ccc(CC(=O)Nc2ccc(C(C)(C)C(=O)Nc3cccnc3)cc2)cc1 | – | 4500 | 63 | – | – | 93 | 150 | – | – | – |
| CCS(=O)(=O)c1ccc(CC(=O)Nc2ccc(C(C)(C)C(=O)N3CC4(CCC4)C3)cc2)cc1 | – | 10000 | 55 | – | – | 89 | 470 | 33 | – | – |
| CCS(=O)(=O)c1ccc(CC(=O)Nc2ccc(C(C)(C)C(=O)Nc3ccncc3)cc2)cc1 | 4.3 | > 10000 | 47 | – | 25 | 87 | 1800 | – | > 50 | > 50 |
| CCS(=O)(=O)c1ccc(CC(=O)Nc2ccc(C(C)(C)C(=O)Nc3ncccc3F)cc2)cc1 | 93 | > 10000 | 37 | – | 80 | 92 | 310 | – | > 50 | > 50 |
| CCS(=O)(=O)c1ccc(CC(=O)Nc2ccc(C(C)(C)C(=O)N3Cc4ccccc4C3)cc2)cc1 | – | 1900 | 84 | – | – | 92 | 260 | < 30 | – | – |
| CCS(=O)(=O)c1ccc(CC(=O)Nc2ccc(C(C)(C)C(=O)N3CCC3)cc2)cc1 | – | > 10000 | 52 | – | – | 90 | 180 | < 30 | – | – |
| CCS(=O)(=O)c1ccc(CC(=O)Nc2ccc(C(C)(C)C(=O)N(C)C)cc2)cc1 | – | > 10000 | 51 | – | – | 89 | 370 | 30 | – | – |
| CCS(=O)(=O)c1ccc(CC(=O)Nc2ccc(C(C)(C)C(=O)Nc3cc(C(F)(F)F)ccn3)cc2)cc1 | 36 | 78 | 94 | – | 23 | 94 | 25 | – | 0.5 (≈ 0.267 µg/mL) | 26 (≈ 13.9 µg/mL) |
| CCS(=O)(=O)c1ccc(CC(=O)Nc2ccc(C(C)(C)C(=O)N3CCCCC3)cc2)cc1 | – | > 10000 | 50 | – | – | 91 | 430 | 36 | – | – |
| CCS(=O)(=O)c1ccc(CC(=O)Nc2ccc(C(C)(C)C(=O)Nc3ccccc3C)cc2)cc1 | 24 | 6800 | 57 | – | 6 | 93 | 140 | – | – | – |
| CCS(=O)(=O)c1ccc(CC(=O)Nc2ccc(C(C)(C)C(=O)Nc3cccc(C(F)(F)F)n3)cc2)cc1 | 74 | 5400 | 66 | – | 71 | 90 | 500 | – | 0.6 (≈ 0.32 µg/mL) | 1.1 (≈ 0.587 µg/mL) |
| CCS(=O)(=O)c1ccc(CC(=O)Nc2ccc(C(C)(C)C(=O)Nc3cc(F)ccn3)cc2)cc1 | 69 | 320 | 86 | – | 47 | 94 | 31 | – | > 50 | > 50 |
| CCS(=O)(=O)c1ccc(CC(=O)Nc2ccc(C(C)(C)C(=O)Nc3ccccn3)cc2)cc1 | 60 | 1300 | 73 | – | 36 | 93 | 40 | – | > 50 | > 50 |
| CCS(=O)(=O)c1ccc(CC(=O)Nc2ccc(C(C)(C)C(=O)N3CCc4ccccc43)cc2)cc1 | – | 110 | 87 | – | – | 93 | 10 | < 30 | – | – |
| CCS(=O)(=O)c1ccc(CC(=O)Nc2ccc(C(C)(C)C(=O)Nc3ccccc3)cc2)cc1 | 8.5 | 470 | 69 | 480 | 30 | 93 | 14 | < 30 | 26.6 (≈ 12.4 µg/mL) | 46.9 (≈ 21.8 µg/mL) |
| CCS(=O)(=O)c1ccc(CC(=O)Nc2ccc(C(C)(C)C(=O)N(C)c3ccccc3)cc2)cc1 | – | 330 | 76 | – | – | 93 | 14 | < 30 | – | – |
